Data as given in ChEMBL document CHEMBL3124745, “4-Bicyclic heteroaryl-piperidine derivatives as potent, orally bioavailable stearoyl-CoA desaturase-1 (SCD1) inhibitors: part 2. Pyridazine-based analogs” (Bioorg Med Chem Lett, 2014).
One block for each compound: values may come before it.

How the values were obtained:
Stearoyl-CoA desaturase = target: T1, Stearoyl-CoA desaturase (Homo sapiens, UniProt O00767); assay: Inhibition of SCD1 in human A431 cells assessed as [13C]-palmitic acid conversion to [13C]-palmitoleic acid after 4 hrs by LC/MS analysis; assay type: cell-based, A-431
T1 sequence (O00767 whole entry): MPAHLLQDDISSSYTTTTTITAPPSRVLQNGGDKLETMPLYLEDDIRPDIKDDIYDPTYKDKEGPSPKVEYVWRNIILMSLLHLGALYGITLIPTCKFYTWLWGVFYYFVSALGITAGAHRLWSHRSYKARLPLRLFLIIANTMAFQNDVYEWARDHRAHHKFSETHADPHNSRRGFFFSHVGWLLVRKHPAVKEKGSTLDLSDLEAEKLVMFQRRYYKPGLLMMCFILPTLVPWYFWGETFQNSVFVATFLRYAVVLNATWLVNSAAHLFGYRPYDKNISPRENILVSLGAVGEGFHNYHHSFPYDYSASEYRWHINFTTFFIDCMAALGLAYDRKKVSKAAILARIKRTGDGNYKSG

Mus musculus [1] = assay: Antiobesity activity in diet-induced obese C57BL/6 mouse assessed as change in body weight at 30 mg/kg, po qd for 10 days (reference value: 2.8 +/- 0.3 g); assay type: functional
[2] = Metabolic stability in rat liver microsomes assessed as compound remaining measured at 10 mins; assay type: ADME; settings: read-out: Stability
[3] = Metabolic stability in human liver microsomes assessed as compound remaining measured at 10 mins; assay type: ADME; settings: read-out: Stability
Acyl-CoA desaturase 1 = target: T2, Acyl-CoA desaturase 1 (Rattus norvegicus, UniProt P07308); assay: Inhibition of SCD1 in Sprague-Dawley rat liver microsomes using stearoyl-[9,10-3H]-CoA as substrate
T2 sequence (P07308 whole entry): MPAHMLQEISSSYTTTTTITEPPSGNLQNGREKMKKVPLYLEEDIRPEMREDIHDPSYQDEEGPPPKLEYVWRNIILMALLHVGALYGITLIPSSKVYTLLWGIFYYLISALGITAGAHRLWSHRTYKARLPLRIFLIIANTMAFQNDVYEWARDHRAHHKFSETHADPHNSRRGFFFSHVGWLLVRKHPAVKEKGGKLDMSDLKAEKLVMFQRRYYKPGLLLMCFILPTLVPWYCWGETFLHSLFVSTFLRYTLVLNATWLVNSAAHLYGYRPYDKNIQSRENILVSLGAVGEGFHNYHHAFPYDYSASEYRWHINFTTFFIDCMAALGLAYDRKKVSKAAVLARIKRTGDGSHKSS

Rattus norvegicus [4] = assay: Toxicity in Zucker fa/fa rat assessed as narrow eye fissure at 10 mg/kg; assay type: organism-based; design: dose 10 mg/kg; settings: in vivo
Mus musculus [5] = assay: Toxicity in diet-induced obese C57BL/6 mouse assessed as narrow eye fissure at 30 mg/kg, po; assay type: organism-based; design: dose 30 mg/kg, route oral; settings: in vivo
Rattus norvegicus [6] = species: Rattus norvegicus; assay: Antiobesity activity in Zucker fa/fa rat assessed as decrease in C18:1 to C18:0 plasma desaturation index after 26 days; assay type: functional, organism-based
Rattus norvegicus [7] = species: Rattus norvegicus; assay: Antiobesity activity in Zucker fa/fa rat assessed as decrease in C16:1 to C16:0 plasma desaturation index after 26 days; assay type: functional, organism-based
Rattus norvegicus [8] = assay: Antiobesity activity in Zucker fa/fa rat assessed as C18:1 to C18:0 plasma desaturation index at 10 mg/kg after 26 days (reference value: 2.16 +/- 0.07); assay type: functional
Rattus norvegicus [9] = assay: Antiobesity activity in Zucker fa/fa rat assessed as C16:1 to C16:0 plasma desaturation index at 10 mg/kg after 26 days (reference value: 0.183 +/- 0.012); assay type: functional
Rattus norvegicus [10] = assay: Antiobesity activity in Zucker fa/fa rat assessed as C16:1 to C16:0 plasma desaturation index at 3 mg/kg after 26 days (reference value: 0.183 +/- 0.012); assay type: functional
Rattus norvegicus [11] = species: Rattus norvegicus; assay: Antiobesity activity in Zucker fa/fa rat assessed as reduction in body weight gain after 26 days; assay type: functional, organism-based
Rattus norvegicus [12] = assay: Hepatotoxicity in Zucker fa/fa rat assessed as increase in AST level at 1 to 10 mg/kg; assay type: toxicity, organism-based; design: dose 1-10 mg/kg; settings: in vivo
Rattus norvegicus [13] = assay: Hepatotoxicity in Zucker fa/fa rat assessed as increase in ALT level at 1 to 10 mg/kg; assay type: toxicity, organism-based; design: dose 1-10 mg/kg; settings: in vivo
Rattus norvegicus [14] = assay: Toxicity in Zucker fa/fa rat assessed as reduction in food intake at 10 mg/kg after 22 days relative to control; assay type: organism-based; design: dose 10 mg/kg; scale not given: the % may be the effect or the level left; settings: in vivo, 528 h
Rattus norvegicus [15] = assay: Toxicity in Zucker fa/fa rat assessed as change in food intake at 1 to 3 mg/kg after 26 days; assay type: organism-based; design: dose 1-3 mg/kg; settings: in vivo, 624 h
Rattus norvegicus [16] = assay: Antiobesity activity in Zucker fa/fa rat assessed as reduction in body weight gain at 1 mg/kg after 26 days relative to control; assay type: functional; design: scale not given: the % may be the effect or the level left
Rattus norvegicus [17] = assay: Antiobesity activity in Zucker fa/fa rat assessed as reduction in body weight gain at 3 mg/kg after 26 days relative to control; assay type: functional; design: scale not given: the % may be the effect or the level left
Rattus norvegicus [18] = assay: Antiobesity activity in Zucker fa/fa rat assessed as reduction in body weight gain at 10 mg/kg after 26 days relative to control; assay type: functional; design: scale not given: the % may be the effect or the level left
Rattus norvegicus [19] = assay: Antiobesity activity in Zucker fa/fa rat assessed as effect on body weight gain at 10 mg/kg measured on day 26 (reference value: 161 +/- 8 g); assay type: functional
Rattus norvegicus [20] = assay: Antiobesity activity in Zucker fa/fa rat assessed as effect on body weight gain at 3 mg/kg measured on day 26 (reference value: 161 +/- 8 g); assay type: functional
Rattus norvegicus [21] = assay: Antiobesity activity in Zucker fa/fa rat assessed as effect on body weight gain at 1 mg/kg measured on day 26 (reference value: 161 +/- 8 g); assay type: functional
Rattus norvegicus [22] = assay: Antiobesity activity in Zucker fa/fa rat assessed as effect on body weight gain at 10 mg/kg measured on day 22 (reference value: 142 +/- 4 g); assay type: functional
Rattus norvegicus [23] = assay: Antiobesity activity in Zucker fa/fa rat assessed as effect on body weight gain at 3 mg/kg measured on day 22 (reference value: 142 +/- 4 g); assay type: functional
Rattus norvegicus [24] = assay: Antiobesity activity in Zucker fa/fa rat assessed as effect on body weight gain at 1 mg/kg measured on day 22 (reference value: 142 +/- 4 g); assay type: functional
Rattus norvegicus [25] = assay: Antiobesity activity in Zucker fa/fa rat assessed as effect on body weight gain at 10 mg/kg measured on day 15 (reference value: 103 +/- 4 g); assay type: functional
Rattus norvegicus [26] = assay: Antiobesity activity in Zucker fa/fa rat assessed as effect on body weight gain at 3 mg/kg measured on day 15 (reference value: 103 +/- 4 g); assay type: functional
Rattus norvegicus [27] = assay: Antiobesity activity in Zucker fa/fa rat assessed as effect on body weight gain at 1 mg/kg measured on day 15 (reference value: 103 +/- 4 g); assay type: functional
Rattus norvegicus [28] = assay: Antiobesity activity in Zucker fa/fa rat assessed as effect on body weight gain at 10 mg/kg measured on day 8 (reference value: 61 +/- 7 g); assay type: functional
Rattus norvegicus [29] = assay: Antiobesity activity in Zucker fa/fa rat assessed as effect on body weight gain at 3 mg/kg measured on day 8 (reference value: 61 +/- 7 g); assay type: functional
Rattus norvegicus [30] = assay: Antiobesity activity in Zucker fa/fa rat assessed as effect on body weight gain at 1 mg/kg measured on day 8 (reference value: 61 +/- 7 g); assay type: functional
[31] = Oral bioavailability in Zucker fa/fa rat at 10 mg/kg; assay type: ADME, organism-based; settings: in vivo
[32] = Oral bioavailability in Sprague-Dawley rat at 10 mg/kg; assay type: ADME, organism-based; settings: in vivo
[33] = AUC (24 hrs) in Zucker fa/fa rat at 10 mg/kg, po; assay type: ADME, organism-based; design: time < 24 hr, dose 10 mg/kg, route oral; settings: plasma
[34] = Cmax in Zucker fa/fa rat at 10 mg/kg, po; assay type: ADME, organism-based; design: dose 10 mg/kg, route oral; settings: in vivo
[35] = AUC (24 hrs) in Sprague-Dawley rat at 10 mg/kg, po; assay type: ADME, organism-based; design: time < 24 hr, dose 10 mg/kg, route oral; settings: plasma
[36] = Cmax in Sprague-Dawley rat at 10 mg/kg, po; assay type: ADME, organism-based; design: dose 10 mg/kg, route oral; settings: in vivo
[37] = Clearance in Sprague-Dawley rat at 2 mg/kg, iv; assay type: ADME, organism-based; design: dose 2 mg/kg, route intravenous; settings: in vivo
[38] = Volume of distribution in Sprague-Dawley rat at 2 mg/kg, iv; assay type: ADME, organism-based; design: dose 2 mg/kg, route intravenous; settings: in vivo

Structure (SMILES): Cc1ccc(-c2ccc(N3CCC(N4CCc5ccc(F)cc54)CC3)nn2)cc1
IC50 (Stearoyl-CoA desaturase): 11 nM

Structure (SMILES): CCOc1cnn(-c2ccc(N3CCC(N4CCc5ccc(F)cc54)CC3)nn2)c1
remaining at 10 min [2]: < 50%
remaining at 10 min [3]: < 50%
IC50 (Stearoyl-CoA desaturase): 9 nM
IC50 (Acyl-CoA desaturase 1): 8 nM

Structure (SMILES): OCc1ccc(-c2ccc(N3CCC(N4CCc5ccc(F)cc54)CC3)nn2)cn1
Activity (Mus musculus [1]): -2.2 g

Structure (SMILES): Cc1cnc(-c2ccc(N3CCC(N4CCc5ccc(F)cc54)CC3)nn2)s1
IC50 (Stearoyl-CoA desaturase): 12 nM

Structure (SMILES): Cc1ccc(-c2ccc(N3CCC(N4CCc5ccc(F)cc54)CC3)nn2)cn1
IC50 (Acyl-CoA desaturase 1): 13 nM

Structure (SMILES): OCc1cnn(-c2ccc(N3CCC(N4CCc5ccc(F)cc54)CC3)nn2)c1
Activity (Mus musculus [1]): 1.2 g
IC50 (Stearoyl-CoA desaturase): 6 nM
IC50 (Acyl-CoA desaturase 1): 17 nM

Structure (SMILES): CN(C)c1ccc(-c2ccc(N3CCC(N4CCc5ccc(F)cc54)CC3)nn2)cn1
IC50 (Stearoyl-CoA desaturase): 30 nM
IC50 (Acyl-CoA desaturase 1): 17 nM

Second part, led by results:

IC50 (Stearoyl-CoA desaturase): 51 nM
Structure (SMILES): Cn1cc(-c2ccc(N3CCC(n4ncc5ccc(F)cc54)CC3)nn2)cn1
Activity (Mus musculus [1]): -3.3 g

remaining at 10 min [2]: < 50%
remaining at 10 min [3]: < 50%
Structure (SMILES): CCCn1cc(-c2ccc(N3CCC(N4CCc5ccc(F)cc54)CC3)nn2)cn1

IC50 (Acyl-CoA desaturase 1): 22 nM
Structure (SMILES): OCCn1cc(-c2ccc(N3CCC(N4CCc5ccc(F)cc54)CC3)nn2)cn1
Activity (Mus musculus [1]): 0.5 g

remaining at 10 min [2]: < 50%
remaining at 10 min [3]: < 50%
Structure (SMILES): CCOCCn1cc(-c2ccc(N3CCC(N4CCc5ccc(F)cc54)CC3)nn2)cn1

IC50 (Stearoyl-CoA desaturase): 30 nM
Structure (SMILES): CCn1cc(-c2ccc(N3CCC(N4CCc5ccc(F)cc54)CC3)nn2)cn1

bioavailability [31]: 11%
bioavailability [32]: 105%
AUC at 24 h [33]: 10800 ng·h/mL
Cmax [34]: 1600 ng/mL
AUC at 24 h [35]: 38800 ng·h/mL
Cmax [36]: 4400 ng/mL
clearance [37]: 3.3 mL/min/kg
Vd [38]: 0.52 L/kg
Structure (SMILES): Cn1cc(-c2ccc(N3CCC(N4CCc5ccc(F)cc54)CC3)nn2)cn1
Activity (Rattus norvegicus [4]): Toxic
Activity (Mus musculus [5]): Toxic
Activity (Rattus norvegicus [6]): Dose-dependent effect
Activity (Rattus norvegicus [7]): Dose-dependent effect
Activity (Rattus norvegicus [8]): 0.92
Activity (Rattus norvegicus [9]): 0.078
Activity (Rattus norvegicus [10]): 0.088
Activity (Rattus norvegicus [11]): Dose-dependent effect
Activity (Rattus norvegicus [12]): Non-toxic
Activity (Rattus norvegicus [13]): Non-toxic
Activity (Rattus norvegicus [14]): 10%
Activity (Rattus norvegicus [15]): Non-toxic
Activity (Rattus norvegicus [16]): 17%
Activity (Rattus norvegicus [17]): 22%
Activity (Rattus norvegicus [18]): 51%
Activity (Rattus norvegicus [19]): 78 g
Activity (Rattus norvegicus [20]): 125 g
Activity (Rattus norvegicus [21]): 133 g
Activity (Rattus norvegicus [22]): 72 g
Activity (Rattus norvegicus [23]): 112 g
Activity (Rattus norvegicus [24]): 116 g
Activity (Rattus norvegicus [25]): 57 g
Activity (Rattus norvegicus [26]): 80 g
Activity (Rattus norvegicus [27]): 80 g
Activity (Rattus norvegicus [28]): 29 g
Activity (Rattus norvegicus [29]): 44 g
Activity (Rattus norvegicus [30]): 42 g
Activity (Mus musculus [1]): -2.1 g
